Results reported in US20250325534A1, “MICROBIOCIDAL TETRAHYDROISOQUINOLINE DERIVATIVES” (SYNGENTA CROP PROTECTION AG, priority 2021, published 2025).

Columns and labels:
Format in all cases: cell-based
Monographella nivalis = Monographella nivalis (Microdochium nivale) / liquid culture (foot rot cereals); details: 96 h, photometrically 4-5 days after application, read-out: control of Monographella nivalis
Procedure: (§1) Example B10: Monographella nivalis (Microdochium nivale)/Liquid Culture (Foot Rot Cereals) Conidia of the fungus from cryogenic storage are directly mixed into a nutrient broth (potato dextrose broth). After placing a DMSO solution of test compound into a microtiter plate (96-well format), the nutrient broth containing the fungal spores is added. The test plates are incubated at 24° C. and the inhibition of growth is determined photometrically 4-5 days after application.

[1] = system: Mycosphaerella graminicola; assay: Mycosphaerella graminicola (Septoria tritici) / liquid culture (Septoria blotch); details: Zymoseptoria tritici, 96 h, photometrically 4-5 days after application, read-out: control of Mycosphaerella graminicola
Procedure: as §1, with “B19: Mycosphaerella graminicola (Septoria tritici)/Liquid” for “B10: Monographella nivalis (Microdochium nivale)/Liquid”, “(Septoria Blotch)” for “(Foot Rot Cereals)”

Mycosphaerella arachidis = Mycosphaerella arachidis (Cercospora arachidicola) / liquid culture (early leaf spot); details: 96 h, photometrically 4-5 days after application, read-out: control of Mycosphaerella arachidis
Procedure: as §1, with “B11: Mycosphaerella arachidis (Cercospora arachidicola)/Liquid” for “B10: Monographella nivalis (Microdochium nivale)/Liquid”, “(Early Leaf Spot)” for “(Foot Rot Cereals)”

Row | SMILES | inhibition of growth at 20 ppm (Monographella nivalis) [%] | inhibition of growth at 20 ppm [1] [%] | inhibition of growth at 20 ppm (Mycosphaerella arachidis) [%]
1 | CC(=O)C1c2ccccc2C(c2cnn(C)c2)CN1C(=O)c1cc(-c2ccc(F)cc2F)on1 (centres unmarked) [Compound P-17, 1-[2-[5-(2,4-difluorophenyl)isoxazole-3-carbonyl]-4-(1-methylpyrazol-4-yl)-3,4-dihydro-1H-isoquinolin-1-yl]ethanone] | ≥ 80 | ≥ 80 | –
2 | CC1c2ccc(OCC(F)F)cc2C(C)(c2cnn(C)c2)CN1C(=O)c1cc(-c2ccccc2)on1 (centres unmarked) [Compound P-26, [6-(2,2-difluoroethoxy)-1,4-dimethyl-4-(1-methylpyrazol-4-yl)-1,3-dihydroisoquinolin-2-yl]-(5-phenylisoxazol-3-yl)methanone] | – | ≥ 80 | ≥ 80
3 | CC1c2ccc(O)cc2C(C)(c2cnn(C)c2)CN1C(=O)c1cc(-c2ccc(F)cc2F)on1 (centres unmarked) [Compound P-35, [5-(2,4-difluorophenyl)isoxazol-3-yl]-[6-hydroxy-1,4-dimethyl-4-(1-methylpyrazol-4-yl)-1,3-dihydroisoquinolin-2-yl]methanone] | – | ≥ 80 | ≥ 80
4 | CCC1c2ccccc2C(c2cnn(C)c2)CN1C(=O)c1cc(-c2ccc(F)cc2F)on1 (centres unmarked) [Compound P-36, [5-(2,4-difluorophenyl)isoxazol-3-yl]-[1-ethyl-4-(1-methylpyrazol-4-yl)-3,4-dihydro-1H-isoquinolin-2-yl]methanone] | ≥ 80 | ≥ 80 | –
5 | COc1ccc(-c2cc(C(=O)N3Cc4ccccc4C(c4cnn(C)c4)C3)no2)c(F)c1 (centres unmarked) [Compound P-74, [5-(2-fluoro-4-methoxy-phenyl)isoxazol-3-yl]-[4-(1-methylpyrazol-4-yl)-3,4-dihydro-1H-isoquinolin-2-yl]methanone] | ≥ 80 | – | –
6 | Cc1cccc2c1CN(C(=O)c1cc(-c3ccc(F)cc3F)on1)CC2c1c(C)nn(C)c1C (centres unmarked) [Compound P-114, [5-(2,4-difluorophenyl)isoxazol-3-yl]-[8-methyl-4-(1,3,5-trimethylpyrazol-4-yl)-3,4-dihydro-1H-isoquinolin-2-yl]methanone] | – | ≥ 80 | ≥ 80
7 | Cc1nn(C)c(C)c1C1CN(C(=O)c2cc(-c3ccc(F)cc3F)on2)Cc2cccc(F)c21 (centres unmarked) [Compound P-123, [5-(2,4-difluorophenyl)isoxazol-3-yl]-[5-fluoro-4-(1,3,5-trimethylpyrazol-4-yl)-3,4-dihydro-1H-isoquinolin-2-yl]methanone] | – | ≥ 80 | ≥ 80
8 | Cc1ccc2c(c1)C(c1cnn(C)c1)CN(C(=O)c1cc(-c3ccccc3)on1)C2 (centres unmarked) [Compound P-137, [6-methyl-4-(1-methylpyrazol-4-yl)-3,4-dihydro-1H-isoquinolin-2-yl]-(5-phenylisoxazol-3-yl)methanone] | – | ≥ 80 | ≥ 80
9 | Cn1cc(C2CN(C(=O)c3ncc(-c4ccccc4)s3)Cc3ccccc32)cn1 (centres unmarked) [Compound P-156, [4-(1-methylpyrazol-4-yl)-3,4-dihydro-1H-isoquinolin-2-yl]-(5-phenylthiazol-2-yl)methanone] | ≥ 80 | ≥ 80 | –
10 | Cn1cc(C2CN(C(=O)c3cc(-c4ccc(F)cc4)no3)Cc3ccccc32)cn1 (centres unmarked) [Compound P-160, [3-(4-fluorophenyl)isoxazol-5-yl]-[4-(1-methylpyrazol-4-yl)-3,4-dihydro-1H-isoquinolin-2-yl]methanone] | ≥ 80 | ≥ 80 | –
11 | Cn1cc(C2CN(C(=O)c3cnc(-c4ccccc4)s3)Cc3ccccc32)cn1 (centres unmarked) [Compound P-164, [4-(1-methylpyrazol-4-yl)-3,4-dihydro-1H-isoquinolin-2-yl]-(2-phenylthiazol-5-yl)methanone] | ≥ 80 | ≥ 80 | –
12 | Cn1cc(C2CN(C(=O)c3cc(C4CCCCC4)on3)Cc3ccccc32)cn1 (centres unmarked) [Compound P-177, (5-cyclohexylisoxazol-3-yl)-[4-(1-methylpyrazol-4-yl)-3,4-dihydro-1H-isoquinolin-2-yl]methanone] | ≥ 80 | ≥ 80 | –
13 | Cn1cc(C2CN(C(=O)c3cc(C4(C)CC4)on3)Cc3ccccc32)cn1 (centres unmarked) [Compound P-184, [5-(1-methylcyclopropyl)isoxazol-3-yl]-[4-(1-methylpyrazol-4-yl)-3,4-dihydro-1H-isoquinolin-2-yl]methanone] | – | ≥ 80 | –
14 | Cn1cc(C2CN(C(=O)c3cc(C(C)(C)C)on3)Cc3ccccc32)cn1 (centres unmarked) [Compound P-195, (5-tert-butylisoxazol-3-yl)-[4-(1-methylpyrazol-4-yl)-3,4-dihydro-1H-isoquinolin-2-yl]methanone] | – | ≥ 80 | –
15 | Cn1cc(C2CN(C(=O)c3cc(-c4ccccc4Cl)on3)Cc3ccccc32)cn1 (centres unmarked) [Compound P-197, [5-(2-chlorophenyl)isoxazol-3-yl]-[4-(1-methylpyrazol-4-yl)-3,4-dihydro-1H-isoquinolin-2-yl]methanone] | ≥ 80 | ≥ 80 | –
16 | Cn1cc(C2CN(C(=O)c3cc(C4CC4)on3)Cc3ccccc32)cn1 (centres unmarked) [Compound P-202, (5-cyclopropylisoxazol-3-yl)-[4-(1-methylpyrazol-4-yl)-3,4-dihydro-1H-isoquinolin-2-yl]methanone] | – | ≥ 80 | –
17 | CC(C)C1(c2cnn(C)c2)CN(C(=O)c2cc(-c3ccc(F)cc3F)on2)Cc2ccccc21 (centres unmarked) [Compound P-219, [5-(2,4-difluorophenyl)isoxazol-3-yl]-[4-isopropyl-4-(1-methylpyrazol-4-yl)-1,3-dihydroisoquinolin-2-yl]methanone] | – | ≥ 80 | –
18 | Cc1c(C2CN(C(=O)c3nnc(C4CC4)s3)Cc3ccccc32)cnn1C (centres unmarked) [Compound P-233, (5-cyclopropyl-1,3,4-thiadiazol-2-yl)-[4-(1,5-dimethylpyrazol-4-yl)-3,4-dihydro-1H-isoquinolin-2-yl]methanone] | – | ≥ 80 | –
19 | Cc1c(C2CN(C(=O)c3cc(C4CCCC4)on3)Cc3ccccc32)cnn1C (centres unmarked) [Compound P-235, (5-cyclopentylisoxazol-3-yl)-[4-(1,5-dimethylpyrazol-4-yl)-3,4-dihydro-1H-isoquinolin-2-yl]methanone] | – | ≥ 80 | –
20 | Cc1c(C2CN(C(=O)c3cc(C4CC4)on3)Cc3ccccc32)cnn1C (centres unmarked) [Compound P-237, (5-cyclopropylisoxazol-3-yl)-[4-(1,5-dimethylpyrazol-4-yl)-3,4-dihydro-1H-isoquinolin-2-yl]methanone] | – | ≥ 80 | –
21 | CCc1nnc(C(=O)N2Cc3ccccc3C(c3cnn(C)c3C)C2)s1 (centres unmarked) [Compound P-244, [4-(1,5-dimethylpyrazol-4-yl)-3,4-dihydro-1H-isoquinolin-2-yl]-(5-ethyl-1,3,4-thiadiazol-2-yl)methanone] | – | ≥ 80 | –
22 | CC(C)C1(c2cnn(C)c2)CN(C(=O)c2cc(-c3ccc(F)cc3F)on2)Cc2ccccc21 (centres unmarked) [Compound P-246, [5-(2,4-difluorophenyl)isoxazol-3-yl]-[4-isopropyl-4-(1-methylpyrazol-4-yl)-1,3-dihydroisoquinolin-2-yl]methanone] | ≥ 80 | – | –
23 | CCC1(c2cnn(C)c2)CN(C(=O)c2cc(-c3ccc(F)cc3F)on2)Cc2ccccc21 (centres unmarked) [Compound P-248, [5-(2,4-difluorophenyl)isoxazol-3-yl]-[4-ethyl-4-(1-methylpyrazol-4-yl)-1,3-dihydroisoquinolin-2-yl]methanone] | ≥ 80 | – | –
